Measurements published in patent US10538521B2, “Pyrimidine derivative having antimalarial activity” (CARNA BIOSCIENCES, INC., priority 2016, dated 2020).
Structures can show the parent of a compound that is named as a salt. Where two headings read alike, the source gives them in different places.

Tests used:
[1] = test system: K1 strain, a drug resistant strain of Plasmodium falciparum; assay: In vitro antimalarial assay (p-LDH, Malstat), K1 strain; type: cell-based; settings: read-out: Antimalarial activity (IC50 value), Strain K1
How it was run: (§1)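 IC50 derived from concentration-response of parasite lactate dehydrogenase signal (Malstat reagent, NBT/PES formazan at 655 nm) after freeze-thaw lysis. Infected erythrocytes (hematocrit 2%, parasitaemia 0.5 or 1%) exposed 72 h to 12.5–0.0001 μM final compound under 3% O2-4% CO2-93% N2, FCR3 and K1 alike.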

[2] = test system: FCR3 strain, a drug sensitive strain of Plasmodium falciparum; assay: In vitro antimalarial assay (p-LDH, Malstat), FCR3 strain; type: cell-based; settings: read-out: Antimalarial activity (IC50 value), Strain FCR3
How it was run: as §1

[3] = P. falciparum K1 (drug resistant), 72 h culture, p-LDH readout
[4] = P. falciparum FCR3 (drug sensitive), 72 h culture, p-LDH readout

Row | IC50 [1, 3] | IC50 [2, 4] | SMILES | IC50 ([1]; K1, 72 h) | IC50 ([2]; FCR3, 72 h)
1 | 1000 to 10000 nM | < 100 nM | Cc1cc(C)nc(Nc2nc(Nc3ccn4ccnc4c3)cc(N3CCN(C)[C@@H](C)C3)n2)c1 [Example 45, (S)-6-(3,4-dimethylpiperazin-1-yl)-N2-(4,6-dimethylpyridin-2-yl)-N4-(imidazo[1,2-a]pyridin-7-yl)pyrimidine-2,4-diamine] | – | –
2 | 100 to 1000 nM | 100 to 1000 nM | COc1ccnc(Nc2nc(Nc3ccn4ccnc4c3)cc(N3CCC(C)(C)C3)n2)c1 [Example 209, 6-(3,3-dimethylpyrrolidin-1-yl)-N4-(imidazo[1,2-a]pyridin-7-yl)-N2-(4-methoxypyridin-2-yl) pyrimidine-2,4-diamine] | – | –
3 | < 100 nM | < 100 nM | Cc1cc(C)nc(Nc2nc(Nc3ccn4ccnc4c3)cc(N3CCC(N4CCOCC4)CC3)n2)c1 [Example 132, N2-(4,6-dimethylpyridin-2-yl)-N4-(imidazo[1,2-a]pyridin-7-yl)-6-(4-morpholinopiperidin-1-yl)pyrimidine-2,4-diamine] | – | –
4 | < 100 nM | < 100 nM | Cc1ccc(Nc2nc(Nc3ccn4ccnc4c3)cc(N3CCCCC3)n2)nc1C [Example 88, N2-(5,6-dimethylpyridin-2-yl)-N4-(imidazo[1,2-a]pyridin-7-yl)-6-(piperidin-1-yl)pyrimidine-2,4-diamine] | – | –
5 | 100 to 1000 nM | 100 to 1000 nM | Cc1cc(C)nc(Nc2nc(Nc3ccn4ccnc4c3)cc(N3CCN[C@@H](C)C3)n2)c1 [Example 31, (S)-N2-(4,6-dimethylpyridin-2-yl)-N4-(imidazo[1,2-a]pyridin-7-yl)-6-(3-methylpiperazin-1-yl)pyrimidine-2,4-diamine] | – | –
6 | 100 to 1000 nM | 100 to 1000 nM | Fc1ccc(Nc2nc(Nc3ccn4ccnc4c3)cc(N3CCOCC3)n2)cn1 [Example 12, N2-(6-Fluoropyridin-3-yl)-N4-(imidazo[1,2-a]pyridin-7-yl)-6-morpholinopyrimidine-2,4-diamine] | – | –
7 | 100 to 1000 nM | 100 to 1000 nM | Cc1ccc(Nc2nc(Nc3ccn4ccnc4c3)cc(N3CCCCC3)n2)cn1 [Example 79, N4-(imidazo[1,2-a]pyridin-7-yl)-N2-(6-methylpyridin-3-yl)-6-(piperidin-1-yl)pyrimidine-2,4-diamine] | – | –
8 | 100 to 1000 nM | 100 to 1000 nM | CC(C)c1ccnc(Nc2nc(Nc3ccn4ccnc4c3)cc(N3CCCCC3)n2)c1 [Example 73, N4-(imidazo[1,2-a]pyridin-7-yl)-N2-(4-isopropylpyridin-2-yl)-6-(piperidin-1-yl)pyrimidine-2,4-diamine] | – | –
9 | 100 to 1000 nM | < 100 nM | c1ccc(Oc2ccc(Nc3nc(Nc4ccn5ccnc5c4)cc(N4CCOCC4)n3)cn2)cc1 [Example 90, N4-(imidazo[1,2-a]pyridin-7-yl)-6-morpholino-N2-(6-phenoxypyridin-3-yl)pyrimidine-2,4-diamine] | – | –
10 | 100 to 1000 nM | 100 to 1000 nM | CCc1ccnc(Nc2nc(Nc3ccn4ccnc4c3)cc(N3CCC(C)(C)CC3)n2)c1 [Example 99, 6-(4,4-dimethylpiperidin-1-yl)-N2-(4-ethylpyridin-2-yl)-N4-(imidazo[1,2-a]pyridin-7-yl)pyrimidine-2,4-diamine] | – | –
11 | 100 to 1000 nM | 100 to 1000 nM | CCCOc1cccc(Nc2nc(Nc3ccn4ccnc4c3)cc(N3CCCC3)n2)n1 [Example 151, N4-(imidazo[1,2-a]pyridin-7-yl)-N2-(6-propoxypyridin-2-yl)-6-(pyrrolidin-1-yl)pyrimidine-2,4-diamine] | – | –
12 | 100 to 1000 nM | 100 to 1000 nM | CCOCc1cccc(Nc2nc(Nc3ccn4ccnc4c3)cc(N3CCCC3)n2)n1 [Example 171, N2-[6-(ethoxymethyl)pyridin-2-yl]-N4-(imidazo[1,2-a]pyridin-7-yl)-6-(pyrrolidin-1-yl) pyrimidine-2,4-diamine] | – | –
13 | < 100 nM | < 100 nM | COc1cc(C)nc(Nc2nc(Nc3ccn4ccnc4c3)cc(N3CCCCC3)n2)c1 [Example 190, N4-(imidazo[1,2-a]pyridin-7-yl)-N2-(4-methoxy-6-methylpyridin-2-yl)-6-(piperidin-1-yl) pyrimidine-2,4-diamine] | – | –
14 | 100 to 1000 nM | 100 to 1000 nM | Cc1cc(C)nc(Nc2nc(Nc3ccn4ccnc4c3)cc(N3CCC(C)CC3)n2)c1 [Example 183, N2-(4,6-dimethylpyridin-2-yl)-N4-(imidazo[1,2-a]pyridin-7-yl)-6-(4-methylpiperidin-1-yl) pyrimidine-2,4-diamine] | – | –
15 | 1000 to 10000 nM | 1000 to 10000 nM | CCc1ccnc(Nc2nc(Nc3ccn4ccnc4c3)cc(N3CCOCCOCCOCC3)n2)c1 [Example 120, N2-(4-ethylpyridin-2-yl)-N4-(imidazo[1,2-a]pyridin-7-yl)-6-(1,4,7-trioxa-10-azacyclododecan-10-yl)pyrimidine-2,4-diamine] | – | –
16 | 100 to 1000 nM | 100 to 1000 nM | CC(C)(C)c1ccnc(Nc2nc(Nc3ccn4ccnc4c3)cc(N3CCOCC3)n2)c1 [Example 67, N2-(4-(tert-butyl)pyridin-2-yl)-N4-(imidazo[1,2-a]pyridin-7-yl)-6-morpholinopyrimidine-2,4-diamine] | – | –
17 | < 100 nM | < 100 nM | CCc1ccnc(Nc2nc(Nc3ccn4ccnc4c3)cc(N3CCC3)n2)c1 [Example 118, 6-(azetidin-1-yl)-N2-(4-ethylpyridin-2-yl)-N4-(imidazo[1,2-a]pyridin-7-yl)pyrimidine-2,4-diamine] | – | –
18 | < 100 nM | < 100 nM | CC(C)Oc1cccc(Nc2nc(Nc3ccn4ccnc4c3)cc(N3CCCC3)n2)n1 [Example 153, N4-(imidazo[1,2-a]pyridin-7-yl)-N2-(6-isopropoxypyridin-2-yl)-6-(pyrrolidin-1-yl)pyrimidine-2,4-diamine] | – | –
19 | < 100 nM | < 100 nM | COCCOc1cccc(Nc2nc(Nc3ccn4ccnc4c3)cc(N3CCCC3)n2)n1 [Example 152, N4-(imidazo[1,2-a]pyridin-7-yl)-N2-[6-(2-methoxyethoxy)pyridin-2-yl]-6-(pyrrolidin-1-yl)pyrimidine-2,4-diamine] | – | –
20 | 100 to 1000 nM | < 100 nM | CC(C)(C)Cc1cccc(Nc2nc(Nc3ccn4ccnc4c3)cc(N3CCCC3)n2)n1 [Example 162, N4-(imidazo[1,2-a]pyridin-7-yl)-N2-(6-neopentylpyridin-2-yl)-6-(pyrrolidin-1-yl)pyrimidine-2,4-diamine] | – | –
21 | 100 to 1000 nM | 100 to 1000 nM | CCc1ccnc(Nc2nc(Nc3ccn4ccnc4c3)cc(N3CCC(C)CC3)n2)c1 [Example 98, N2-(4-ethylpyridin-2-yl)-N4-(imidazo[1,2-a]pyridin-7-yl)-6-(4-methylpiperidin-1-yl)pyrimidine-2,4-diamine] | – | –
22 | < 100 nM | < 100 nM | Cc1cccc(Nc2nc(N)cc(Nc3ccn4ccnc4c3)n2)n1 [Example 54, N4-(Imidazo[1,2-a]pyridin-7-yl)-N2-(6-methylpyridin-2-yl) pyrimidine-2,4,6-triamine] | – | –
23 | – | – | CC(C)c1cccc(Nc2nc(Nc3ccn4ccnc4c3)cc(N3CCOCC3)n2)n1 [Example 123, N4-(imidazo[1,2-a]pyridin-7-yl)-N2-(6-isopropylpyridin-2-yl)-6-morpholinopyrimidine-2,4-diamine formate] | 100 to 1000 nM | < 100 nM
24 | 100 to 1000 nM | 100 to 1000 nM | CCc1ccnc(Nc2nc(Nc3ccn4ccnc4c3)cc(N3CCN[C@H](C)C3)n2)c1 [Example 102, (R)-N2-(4-ethylpyridin-2-yl)-N4-(imidazo[1,2-a]pyridin-7-yl)-6-(3-methylpiperazin-1-yl)pyrimidine-2,4-diamine] | – | –
25 | < 100 nM | < 100 nM | CCc1cccc(Nc2nc(Nc3ccn4ccnc4c3)cc(N3CCCCC3)n2)n1 [Example 95, N2-(6-ethylpyridin-2-yl)-N4-(imidazo[1,2-a]pyridin-7-yl)-6-(piperidin-1-yl)pyrimidine-2,4-diamine] | – | –
26 | 1000 to 10000 nM | 100 to 1000 nM | CC(C)Oc1ccc(Nc2nc(Nc3ccn4ccnc4c3)cc(N3CCCCC3)n2)cn1 [Example 55, N4-(Imidazo[1,2-a]pyridin-7-yl)-N2-(6-isopropoxypyridin-3-yl)-6-(piperidin-1-yl) pyrimidine-2,4-diamine] | – | –
27 | 100 to 1000 nM | 100 to 1000 nM | COc1ccnc(Nc2nc(Nc3ccn4ccnc4c3)cc(N3CCC4(CCCC4)C3)n2)c1 [Example 207, N4-(imidazo[1,2-a]pyridin-7-yl)-N2-(4-methoxypyridin-2-yl)-6-(2-azaspiro[4.4]nonan-2-yl) pyrimidine-2,4-diamine] | – | –
28 | 100 to 1000 nM | 100 to 1000 nM | COc1cncc(Nc2nc(Nc3ccn4ccnc4c3)cc(N3CCOCC3)n2)c1 [Example 19, N4-(Imidazo[1,2-a]pyridin-7-yl)-N2-(5-methoxypyridin-3-yl)-6-morpholinopyrimidine-2,4-diamine] | – | –
29 | < 100 nM | < 100 nM | CCc1ccnc(Nc2nc(Nc3ccn4ccnc4c3)cc(N3CCC(N(C)C)CC3)n2)c1 [Example 129, 6-(4-(dimethylamino)piperidin-1-yl)-N2-(4-ethylpyridin-2-yl)-N4-(imidazo[1,2-a]pyridin-7-yl)pyrimidine-2,4-diamine] | – | –

Row | SMILES | IC50 [1, 3] | IC50 [2, 4] | IC50 ([1]; K1, 72 h) | IC50 ([2]; FCR3, 72 h)
30 | CC(C)(C)Oc1ccc(Nc2nc(Nc3ccn4ccnc4c3)cc(N3CCOCC3)n2)cn1 [Example 63, N2-(6-(tert-butoxy)pyridin-3-yl)-N4-(imidazo[1,2-a]pyridin-7-yl)-6-morpholinopyrimidine-2,4-diamine] | 100 to 1000 nM | 100 to 1000 nM | – | –
31 | CCCCOc1ccc(Nc2nc(Nc3ccn4ccnc4c3)cc(N3CCOCC3)n2)cn1 [Example 62, N2-(6-butoxypyridin-3-yl)-N4-(imidazo[1,2-a]pyridin-7-yl)-6-morpholinopyrimidine-2,4-diamine] | 100 to 1000 nM | 100 to 1000 nM | – | –
